Data on three compounds can be found in US8871435B2, “Methods and compositions for identifying agents that inhibit an NS4B-mediated neoplastic cellular phenotype of HCV infected cells” (The Board of Trustees of the Leland Stanford Junior …, priority 2007, dated 2014).

Each structure is given as a SMILES string.

In this assay the target is NS4B-GFP (Hepatitis C virus genotype 1b, UniProt Q9WMX2). The format is binding, hepatitis C virus (HCV).
Sequence of NS4B-GFP (Q9WMX2 1712-1972): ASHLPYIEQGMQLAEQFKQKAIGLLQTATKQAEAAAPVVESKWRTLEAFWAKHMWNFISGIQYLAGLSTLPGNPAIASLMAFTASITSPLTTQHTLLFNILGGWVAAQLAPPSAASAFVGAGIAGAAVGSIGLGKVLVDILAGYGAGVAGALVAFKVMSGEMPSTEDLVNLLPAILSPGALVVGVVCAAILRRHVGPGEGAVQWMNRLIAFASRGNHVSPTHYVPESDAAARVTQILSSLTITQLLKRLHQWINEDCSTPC

For the compound `[N-]=[N+]=Nc1ccc(NP(=O)(O)OP(=O)(O)OP(=O)(O)OC[C@H]2O[C@@H](n3cnc4c(N)ncnc43)[C@H](O)[C@@H]2O)cc1` [ATP, ATP-γ-4-azidoanilide], the “labeling (binding) of NS4B-GFP by 32P-labeled photoactivatable nucleotide analog” value was “significantly less efficient than GTP binding”.
Take `Nc1nc2c(ncn2[C@@H]2O[C@H](COP(=O)(O)OP(=O)(O)OP(O)(O)=S)[C@@H](O)[C@H]2O)c(=O)[nH]1` [GTPγS]: the “binding of labeled GTP in the presence of cold competitor nucleotide” value was “progressively decreased”.
Take `[N-]=[N+]=Nc1ccc(NP(=O)(O)OP(=O)(O)OP(=O)(O)OC[C@H]2O[C@@H](n3cnc4c(=O)[nH]c(N)nc43)[C@H](O)[C@@H]2O)cc1` [GTP, GTP-γ-4-azidoanilide]: the “labeling (binding) of NS4B-GFP by 32P-labeled photoactivatable nucleotide analog” value is recorded as “specifically labeled”.
